Values quoted from earlier work in patent publication US12582591B2, “Increased solubilization of ethylhexyl triazone” (DSM IP Assets B.V., priority 2020, dated 2026).
Like-named read-outs stand apart in the source and are kept apart here.

Conditions: for Solubility in esters and alcohols: particularly ethyl acetate, ethanol / alcohols
[1] = listed as UV-filter of the formula (I)

Solubility in esters and alcohols: moderate solubility
Solubility in esters and alcohols [1]: very soluble
Solubility in water and alkanes: very low
Solubility in water and alkanes [1]: insoluble
Compound: CCCCC(CC)COC(=O)c1ccc(Nc2nc(Nc3ccc(C(=O)OCC(CC)CCCC)cc3)nc(Nc3ccc(C(=O)OCC(CC)CCCC)cc3)n2)cc1 (stereo not shown) [Ethylhexyl triazone, ethylhexyl triazone]
